Measured values as given in patent US8906925B2, “Pyrido[4,3-B]indoles containing rigid moieties” (Medivation Technologies, Inc., priority 2008, dated 2014).
Like-named read-outs stand apart in the source and are kept apart here.

Tests used:
Long-Evans rats = test: 5-choice serial reaction time task (5CSRTT); assay type: in vivo, rat; settings: 0.1, 0.3 and 1.0 mg/kg p.o.
From the text: Attention and impulsivity are characteristic of several disease states. The continuous performance test (CPT), used in humans, is capable of detecting attention deficts in a number of disorders, including attention deficit hyperactivity disorder, schizophrenia and mild cognitive impairment. The pre-clinical analogue of the CPT is the 5-choice serial reaction time task (5CSRTT). In this operant-based test, rats are required to be attentive and withhold responding while they monitor 5 apertures for the appearance of a brief stimulus light in one of the apertures. The brief illumination of the stimulus light in the 5CSRTT is analogous to the appearance of the “correct” letters in the CPT in humans. Upon observing the stimulus light, the rat must nose-poke in the corresponding aperture to receive a food reward. The 5CSRTT allows the measurement of similar behavioral responses as the CPT, including accuracy, speed of responding, impulsive and compulsive responding.
Thirteen male Long-Evans rats (275-300 g) were obtained from Harlan Laboratories, Indianapolis, Ind. At the time of testing for the current study, the rats were approximately 16-18 months old. Upon arrival, the rats were assigned unique identification numbers (tail marked). […]

[1] = biological target: human dopamine D2L receptor (Homo sapiens, UniProt P14416); test: Aequorin functional assay, dopamine D2L (CHO-K1); assay type: cell-based; parameters: host or cells: CHO-K1 co-expressing mitochondrial apoaequorin and Gα16; settings: for inhibition at 0.005 µM / inhibition at […] / inhibition at 0.05 µM / inhibition at 0.5 µM / inhibition at 5 µM / inhibition at 15 µM: CHO-K1; for inhibition at 0.005 µM: Antagonist concentration 5 nM; for inhibition at 0.05 µM: Antagonist concentration 50 nM; for inhibition at 0.5 µM: Antagonist concentration 500 nM; for inhibition at 5 µM: Antagonist concentration 5000 nM; for inhibition at 15 µM: Antagonist concentration 15000 nM
From the text: (§1) To study the functional activity of compounds of the invention on the human recombinant dopamine D2L with Aequorin, GTPγS and cAMP functional assays and on the human recombinant serotonin 5-HT2A receptor with Aequorin, CHO-K1 cell lines expressing D2L or 5-HT2A recombinant receptor, mitochondrial apoaequorin and Gα16 were used for the Aequorin assay. CHO-K1 cell line expressing the recombinant D2L receptor was used for the cAMP assay and was amplified to prepare membranes used for the GTPγS assay.
(§2) Cells were incubated at room temperature for at least 4 h with Coelenterazine h (Molecular Probes). Dose response curves with reference compounds were performed before testing the compounds of the invention. D2L reference agonist and antagonist were quinpirol (Tocris, 1061) and haloperidol (Tocris, 0931), respectively. […] For agonist testing, 50 μL of cell suspension were injected on 50 μL of test compound or reference agonist plated in a 96-well plate. The resulting emission of light was recorded using the Hamamatsu Functional Drug Screening System 6000 (FDSS 6000). Following an incubation of 15 min after the first injection, 100 μL of reference agonist at a concentration corresponding to its EC80 was injected on the 100 μL of the mixture of cell suspension and test compound, for antagonist testing. The resulting emission of light was recorded using the same luminometer as for agonist testing. To standardize the emission of recorded light (determination of the “100% signal”) across plates and across different experiments, some of the wells contained 100 μM digitonin or a saturating concentration of ATP (20 μM). Plates also contained the reference agonist at a concentration equivalent to the EC100 and EC80 obtained during the test validation.

[2] = biological target: human recombinant serotonin 5-HT2A receptor (Homo sapiens, UniProt P28223); test: Aequorin functional assay, serotonin 5-HT2A (CHO-K1); assay type: cell-based; parameters: host or cells: CHO-K1 cells co-expressing mitochondrial apoaequorin and Gα16
From the text: as §1, §2

[3] = Antagonist concentration 150 nM
[4] = Antagonist concentration 1500 nM
[5] = CHO-K1, read-out: 5-HT2A Antagonist % Inhibition (Aequorin)

human recombinant serotonin 5-HT2A receptor, sequence (P28223 whole entry): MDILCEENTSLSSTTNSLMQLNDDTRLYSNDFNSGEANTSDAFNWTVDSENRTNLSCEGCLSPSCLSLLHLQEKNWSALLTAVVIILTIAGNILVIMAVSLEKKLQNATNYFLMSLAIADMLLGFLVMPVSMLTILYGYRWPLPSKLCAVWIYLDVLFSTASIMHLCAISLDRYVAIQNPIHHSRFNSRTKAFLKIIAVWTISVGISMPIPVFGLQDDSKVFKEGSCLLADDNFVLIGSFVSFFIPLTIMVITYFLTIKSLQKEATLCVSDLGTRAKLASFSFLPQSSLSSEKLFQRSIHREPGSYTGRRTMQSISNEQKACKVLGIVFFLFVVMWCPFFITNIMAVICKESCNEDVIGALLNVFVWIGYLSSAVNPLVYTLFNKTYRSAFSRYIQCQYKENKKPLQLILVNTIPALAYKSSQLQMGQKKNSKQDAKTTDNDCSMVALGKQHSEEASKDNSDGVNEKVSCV
human dopamine D2L receptor, sequence (P14416 whole entry): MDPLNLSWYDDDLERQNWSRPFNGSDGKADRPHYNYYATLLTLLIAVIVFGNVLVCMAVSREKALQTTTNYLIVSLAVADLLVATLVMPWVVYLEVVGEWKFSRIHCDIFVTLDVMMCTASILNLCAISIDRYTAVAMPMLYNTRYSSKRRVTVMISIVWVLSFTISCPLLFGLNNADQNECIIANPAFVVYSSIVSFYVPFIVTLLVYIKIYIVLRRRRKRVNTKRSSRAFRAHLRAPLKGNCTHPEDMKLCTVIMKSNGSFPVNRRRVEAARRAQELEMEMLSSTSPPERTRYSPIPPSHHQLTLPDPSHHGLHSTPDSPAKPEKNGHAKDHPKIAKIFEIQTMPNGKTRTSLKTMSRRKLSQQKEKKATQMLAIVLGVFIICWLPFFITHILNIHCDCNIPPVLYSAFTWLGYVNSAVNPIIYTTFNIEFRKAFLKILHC

| Compound | D2L Agonist % Activation (Aequorin) ([1]; Agonist concentration 10 nM) [%] | D2L Agonist % Activation (Aequorin) ([1]; Agonist concentration 30 nM) [%] | D2L Agonist % Activation (Aequorin) ([1]; Agonist concentration 100 nM) [%] | D2L Agonist % Activation (Aequorin) ([1]; Agonist concentration 300 nM) [%] | D2L Agonist % Activation (Aequorin) ([1]; Agonist concentration 1000 nM) [%] | D2L Agonist % Activation (Aequorin) ([1]; Agonist concentration 3000 nM) [%] | D2L Agonist % Activation (Aequorin) ([1]; Agonist concentration 10000 nM) [%] | D2L Agonist % Activation (Aequorin) ([1]; Agonist concentration 30000 nM) [%] | inhibition at 0.005 µM [1] [%] | inhibition at […] ([1]; Antagonist concentration 15 nM) [%] | inhibition at 0.05 µM [1] [%] | inhibition at […] [1, 3] [%] | inhibition at 0.5 µM [1] [%] | inhibition at […] [1, 4] [%] | inhibition at 5 µM [1] [%] | inhibition at 15 µM [1] [%] | other results |
| --- | --- | --- | --- | --- | --- | --- | --- | --- | --- | --- | --- | --- | --- | --- | --- | --- | --- |
| C/C(=C\n1c2c(c3cc(Cl)ccc31)CN(C)CC2)c1ccncc1 [Compound 90, (E)-8-chloro-2,3,4,5-tetrahydro-2-methyl-5-(2-(pyridin-4-yl)prop-1-enyl)-1H-pyrido[4,3-b]indole] | 0.95 | 0.25 | −0.23 | −0.24 | −0.48 | −1.20 | −0.78 | −0.92 | 95.5 | 97.3 | 93.5 | 96.8 | 97.9 | 97.2 | 97.4 | 96.1 | impulsivity-like and perserverative-like behavior (Long-Evans rats): reduces; 5-HT2A Agonist % Activation (Aequorin) ([2]; Agonist concentration 10 nM): 0.62%; 5-HT2A Agonist % Activation (Aequorin) ([2]; Agonist concentration 30 nM): 0.26%; 5-HT2A Agonist % Activation (Aequorin) ([2]; Agonist concentration 100 nM): 0.27%; 5-HT2A Agonist % Activation (Aequorin) ([2]; Agonist concentration 300 nM): 0.18%; 5-HT2A Agonist % Activation (Aequorin) ([2]; Agonist concentration 1000 nM): 0.11%; 5-HT2A Agonist % Activation (Aequorin) ([2]; Agonist concentration 3000 nM): 0.04%; 5-HT2A Agonist % Activation (Aequorin) ([2]; Agonist concentration 10000 nM): 0.02%; 5-HT2A Agonist % Activation (Aequorin) ([2]; Agonist concentration 30000 nM): 0.49%; inhibition at 0.005 µM [2, 5]: 73%; inhibition at 0.05 µM [2, 5]: 98.5%; inhibition at 0.5 µM [2, 5]: 98.4%; inhibition at 5 µM [2, 5]: 98.5%; inhibition at 15 µM [2, 5]: 97.6% |
| C/C(=C\n1c2c(c3cc(Cl)ccc31)CN(C)CC2)c1ccc(F)cc1 [Compound 83, (E)-8-chloro-5-(2-(4-fluorophenyl)prop-1-enyl)-2,3,4,5-tetrahydro-2-methyl-1H-pyrido[4,3-b]indole] | 2.43 | 0.68 | 1.26 | 0.92 | −0.12 | 0.00 | 6.32 | 84.25 | 93.5 | 96.4 | 96.8 | 96.8 | 96.8 | 96 | 96 | 92.3 | inhibition at 0.005 µM ([2]; CHO-K1, Antagonist concentration 5 nM, read-out: 5-HT2A Antagonist % Inhibition (Aequorin)): 85.4%; inhibition at […] ([2]; CHO-K1, Antagonist concentration 15 nM): 96.6%; inhibition at 0.05 µM ([2]; CHO-K1, Antagonist concentration 50 nM, read-out: 5-HT2A Antagonist % Inhibition (Aequorin)): 98.5%; inhibition at […] ([2]; CHO-K1, Antagonist concentration 150 nM): 98.7%; inhibition at 0.5 µM ([2]; CHO-K1, Antagonist concentration 500 nM, read-out: 5-HT2A Antagonist % Inhibition (Aequorin)): 98.8%; inhibition at […] ([2]; CHO-K1, Antagonist concentration 1500 nM): 98.9%; inhibition at 5 µM ([2]; CHO-K1, Antagonist concentration 5000 nM, read-out: 5-HT2A Antagonist % Inhibition (Aequorin)): 97.8%; inhibition at 15 µM ([2]; CHO-K1, Antagonist concentration 15000 nM, read-out: 5-HT2A Antagonist % Inhibition (Aequorin)): 97% |
